Broadly, the IC50 is the concentration at which inhibition is half-maximal. Broadly, the inhibition is the percentage by which the read-out fell short of the control.

Format in all cases: cell-based
A short description of assay [1]: Blockade of human K+ channel in HEK293 cells assessed as inhibition of outward delayed rectifying K+ current.
Assay [2] addresses Potassium voltage-gated channel subfamily A member 2 (Homo sapiens) (UniProt P16389). The assay is described as follows: Blockade of Kv1.2 channel over-expressed in CHO cells assessed as inhibition of delayed rectifying K+ current at 10 uM.
Assay [3] concerns the target Potassium voltage-gated channel subfamily A member 3 (Homo sapiens) (UniProt P22001). The assay is described as follows: Blockade of Kv1.3 channel over-expressed in CHO cells assessed as inhibition of delayed rectifying K+ current at 10 uM.
For assay [4], the target named is Potassium voltage-gated channel subfamily A member 6 (Homo sapiens) (UniProt P17658). The assay is described as follows: Blockade of Kv1.6 channel over-expressed in CHO cells assessed as inhibition of delayed rectifying K+ current at 10 uM.
Assay [5] addresses Potassium voltage-gated channel subfamily A member 1 (Homo sapiens) (UniProt Q09470). The assay is described as follows: Blockade of Kv1.1 channel over-expressed in CHO cells assessed as inhibition of delayed rectifying K+ current at 10 uM.
For assay [6], the system named is HEK293. The assay is described as follows: Blockade of human K+ channel in HEK293 cells assessed as inhibition of outward delayed rectifying K+ current at 10 uM.

Sequence of Potassium voltage-gated channel subfamily A member 2 (Homo sapiens) (P16389 whole entry): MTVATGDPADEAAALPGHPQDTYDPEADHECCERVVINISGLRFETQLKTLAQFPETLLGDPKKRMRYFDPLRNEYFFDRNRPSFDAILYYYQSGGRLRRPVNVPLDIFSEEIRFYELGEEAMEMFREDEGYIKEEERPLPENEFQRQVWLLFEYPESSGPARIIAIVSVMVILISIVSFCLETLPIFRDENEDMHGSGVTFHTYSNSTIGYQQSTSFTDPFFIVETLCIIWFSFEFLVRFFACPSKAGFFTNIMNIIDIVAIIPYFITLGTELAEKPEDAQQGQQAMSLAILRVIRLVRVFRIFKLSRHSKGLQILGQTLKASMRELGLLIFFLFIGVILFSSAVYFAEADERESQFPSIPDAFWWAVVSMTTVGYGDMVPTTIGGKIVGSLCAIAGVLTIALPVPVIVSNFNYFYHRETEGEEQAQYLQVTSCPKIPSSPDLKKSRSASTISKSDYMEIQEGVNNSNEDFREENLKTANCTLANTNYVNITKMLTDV
Sequence of Potassium voltage-gated channel subfamily A member 3 (Homo sapiens) (P22001 whole entry): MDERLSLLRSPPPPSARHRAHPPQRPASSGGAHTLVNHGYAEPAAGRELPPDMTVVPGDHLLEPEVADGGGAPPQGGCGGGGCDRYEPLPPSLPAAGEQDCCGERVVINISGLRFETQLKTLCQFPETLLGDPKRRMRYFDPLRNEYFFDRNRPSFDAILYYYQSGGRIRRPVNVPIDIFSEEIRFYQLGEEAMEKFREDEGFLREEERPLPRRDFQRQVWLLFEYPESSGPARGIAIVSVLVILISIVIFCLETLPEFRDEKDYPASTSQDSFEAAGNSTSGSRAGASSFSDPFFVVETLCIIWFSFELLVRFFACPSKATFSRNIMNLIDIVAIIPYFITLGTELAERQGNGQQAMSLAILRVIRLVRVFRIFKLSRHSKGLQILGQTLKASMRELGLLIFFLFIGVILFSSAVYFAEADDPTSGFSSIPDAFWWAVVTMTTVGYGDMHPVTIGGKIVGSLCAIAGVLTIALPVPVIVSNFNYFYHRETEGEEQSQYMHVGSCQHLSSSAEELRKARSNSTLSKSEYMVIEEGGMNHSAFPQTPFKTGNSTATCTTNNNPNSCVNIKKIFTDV
Sequence of Potassium voltage-gated channel subfamily A member 6 (Homo sapiens) (P17658 whole entry): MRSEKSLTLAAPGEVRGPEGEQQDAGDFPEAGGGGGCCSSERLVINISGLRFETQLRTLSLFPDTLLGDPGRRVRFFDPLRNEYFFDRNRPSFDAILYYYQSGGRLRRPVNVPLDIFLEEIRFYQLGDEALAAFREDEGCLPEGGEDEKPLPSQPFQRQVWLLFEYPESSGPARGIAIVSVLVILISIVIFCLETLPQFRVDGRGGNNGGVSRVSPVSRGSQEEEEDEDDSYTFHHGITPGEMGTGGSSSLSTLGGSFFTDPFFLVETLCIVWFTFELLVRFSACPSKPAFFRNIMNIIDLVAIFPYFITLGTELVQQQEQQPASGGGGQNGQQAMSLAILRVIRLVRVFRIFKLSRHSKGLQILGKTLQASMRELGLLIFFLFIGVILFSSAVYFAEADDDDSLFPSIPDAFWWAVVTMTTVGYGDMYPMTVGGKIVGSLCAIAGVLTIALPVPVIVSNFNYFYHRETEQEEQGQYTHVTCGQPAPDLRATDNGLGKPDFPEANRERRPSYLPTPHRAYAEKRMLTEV
Sequence of Potassium voltage-gated channel subfamily A member 1 (Homo sapiens) (Q09470 whole entry): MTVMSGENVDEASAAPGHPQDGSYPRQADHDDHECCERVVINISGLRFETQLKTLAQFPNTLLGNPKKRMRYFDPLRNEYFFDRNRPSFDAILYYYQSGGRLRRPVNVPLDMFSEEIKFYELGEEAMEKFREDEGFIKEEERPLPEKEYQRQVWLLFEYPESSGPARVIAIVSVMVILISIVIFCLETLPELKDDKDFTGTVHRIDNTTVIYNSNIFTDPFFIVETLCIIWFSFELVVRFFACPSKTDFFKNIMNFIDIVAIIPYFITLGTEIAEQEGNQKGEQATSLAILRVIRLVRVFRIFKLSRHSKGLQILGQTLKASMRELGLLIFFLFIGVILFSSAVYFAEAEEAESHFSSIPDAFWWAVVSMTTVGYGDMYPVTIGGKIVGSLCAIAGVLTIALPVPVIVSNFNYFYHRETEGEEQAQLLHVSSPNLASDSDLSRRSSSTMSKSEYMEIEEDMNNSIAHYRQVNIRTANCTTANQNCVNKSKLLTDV

On to `O=C(/C=C/c1ccc(O)cc1)c1ccc(OS(=O)(=O)c2ccc([N+](=O)[O-])cc2)cc1`, for which the IC50 in assay [1] was 10.7 µM. Take `Nc1ccc(S(=O)(=O)Oc2cccc(C(=O)/C=C/c3ccc(O)cc3)c2)cc1`: the inhibition in assay [2] came out at 87.4%; in assay [3], 20.6%; in assay [4], 44.2%; in assay [5] it was 87.5%. Besides, the IC50 in assay [1] turned out to be 0.51 µM. Consider `Cc1ccc(S(=O)(=O)Oc2ccc(C(=O)/C=C/c3ccc(O)cc3)cc2)cc1`, for which, in assay [1], the IC50 was determined as 1.6 µM.

Regarding `Nc1ccc(S(=O)(=O)Oc2ccc(C(=O)/C=C/c3ccc(O)cc3)cc2)cc1`, the IC50 in assay [1] came out at 1.1 µM. As for `O=C(/C=C/c1ccc(O)cc1)c1ccc(OS(=O)(=O)c2ccc(F)cc2)cc1`, the half-inhibitory concentration (IC50) in assay [1] came out at 2.7 µM. On the same count and under the same terms, the value for `Nc1ccc(S(=O)(=O)Oc2ccc(C(=O)/C=C/c3ccccc3)cc2)cc1` was 0.85 µM. Turning to `O=C(/C=C/c1ccc(OS(=O)(=O)c2ccc(F)cc2)cc1)c1ccccc1`, the IC50 in assay [1] is > 50 µM. With `Cc1ccc(S(=O)(=O)Oc2ccc(/C=C/C(=O)c3ccc(O)cc3)cc2)cc1`, in assay [1], the IC50 was > 50 µM. Take `O=C(/C=C/c1ccc(O)cc1)c1ccc(O)cc1` [4,4'-DIHYDROXYCHALCONE]: the inhibition in assay [6] was 28.2%. For the same molecule, the IC50 in assay [1] is > 50 µM.

For the molecule `O=C(/C=C/c1ccccc1)c1ccc(O)cc1` [4'-HYDROXYCHALCONE], the IC50 in assay [1] is > 50 µM. Turning to `Cc1ccc(S(=O)(=O)Oc2ccc(/C=C/C(=O)c3ccccc3)cc2)cc1`, the IC50 in assay [1] was > 50 µM. On to `O=C(/C=C/c1ccc(OS(=O)(=O)c2ccccc2)cc1)c1ccccc1`, for which the IC50 in assay [1] was > 50 µM.

As for `COc1ccc(/C=C/C(=O)c2ccc(OS(=O)(=O)c3ccc(C)cc3)cc2)cc1`, the IC50 in assay [1] was > 10 µM. As for `O=C(/C=C/c1ccc(O)cc1)c1ccc(OS(=O)(=O)c2ccccc2)cc1`, the IC50 in assay [1] is 2.4 µM. As to `CC(=O)Nc1ccc(S(=O)(=O)Oc2ccc(C(=O)/C=C/c3ccc(O)cc3)cc2)cc1`, the IC50 in assay [1] is > 10 µM. As to `O=C(/C=C/c1ccccc1)c1ccccc1` [CHALCONE], the inhibition in assay [6] was determined as 24.2%. In assay [1], the IC50 is > 50 µM.

Consider `O=C(/C=C/c1ccc(O)cc1)c1ccccc1` [4-HYDROXYCHALCONE], for which the IC50 in assay [1] is > 50 µM.
